Ends that are not written are not given here. code X = not defined here
Test system: HLA-DR4 transgenic mice
Assay: hTRT766 immunization of HLA-DR4 transgenic mice, IFN-γ ELISPOT of splenocytes
Type: in vivo
Description: IFN-γ ELISPOT assay was used to analyze peptide-specific T cell responses by determining the frequency of Th precursors specific for the peptide. Mice were sacrificed […] after the last immunization and splenocytes were obtained for assessing IFN-γ production.
Briefly, 96-well MultiScreen-IP plates (Millipore Corporation, Bedford, Mass.) were coated with 100 ul/well capture mAb against mouse IFN-γ (AN-18, Mabtech Inc, Cincinnati, Ohio) at a concentration of 10 μg/ml and incubated overnight at 4° C. The plates were washed 4 times with PBS, then blocked with RPMI 1640 plus 10% FBS for 2 hours at 37° C. After washing, freshly isolated splenocytes were plated at 2×10^5cells/well in RPMI 1640 with 10% FBS, in the presence or absence of peptide hTRT766 (20 μg/ml), recombinant hTRT proteins (20 μg/ml) or hTRT-positive NA-6-Mel (ATCC) tumor lysates (50 ul/well). Tumor cell lysates were prepared by three freeze-thaw cycles of 5×10^7 tumor cells resuspended in 5 ml of RPMI 1640 with 10% FBS. Then the cells were centrifuged at 15,000 g for 30 minutes at 4° C. Supernatant was recovered, aliquoted and stored at −80° C. for later use, as described previously [Schroers, 2002 #116]. After 20 hours of cell culture in the incubator, the cells were removed by washing 3 times with PBS and 4 times with PBS/Tween20 (0.05%). Biotinylated anti-mouse IFN-γ antibody (R4-6A2, Mabtech Inc, Cincinnati, Ohio), diluted to 1 μg/ml in PBS/Tween20 containing 0.5% bovine serum albumin, was added and incubated for 2 hours at 37° C. The plates were then washed 6 times with PBS/Tween20 (0.05%) and subsequently avidin-peroxidase-complex (Vector Laboratories, Burlingame, Calif.) was added and incubated for 1 hour at room temperature, and removed by washing 3 times with PBS and PBS/Tween20 (0.05%). The color of the plates was developed by adding HRP substrate 3-amino-9-ethylcarbozole (Sigma, St. Louis, Mo.). The plates were then washed with tap water, and air dried in dark. The plates were evaluated using an automated ELISPOT reader (Zellnet Consulting Inc, New York, N.Y.).
To further assess the therapeutic potential of hTRT766, HLA-DR4 transgenic mice (Congia, 1998; Sonderstrup, 1998; Sonderstrup, 1999) were used to determine whether immunization with the peptide induces a CD4+ Th response specific not only for the peptide, but also for the hTRT protein.
Briefly, human HLA DR4 transgenic mice (HLA-DRB1*0401), which are murine class II-deficient and transduced with human CD4 molecule, were generated. [Congia, 1998; Sonderstrup, 1998; Sonderstrup, 1999). The transgenic mice were successfully used to identify human class-II-restricted epitopes and to study immune responses (Congia, 1998; Sonderstrup, 1998; Sonderstrup, 1999; Geluk, 1998). HLA DR4 expression on the transgenic mice was analyzed by flow cytometry. Male DR4 transgenic mice 6- to 10-week-old were used for experiment. The transgenic mice were immunized twice at one week interval with 100 μg of hTRT766 peptide emulsified in complete Freunds adjuvant (CFA) (final volume, 100 μl) and administered subcutaneously (s.c.) into the rear back. Control group mice were injected with phosphate-buffered saline (PBS) emulsified in CFA.
The spleen cells were isolated and stained with FITC-conjugated mouse anti-human HLA-DR, PE-conjugated mouse anti-human CD4 or FITC-conjugated rat anti-mouse CD4 (BD PharMingen, San Diego, Calif.). Flow cytometric analysis determined that these transgenic mice were human HLA-DR, CD4 positive and mouse CD4 negative. Ten days after the last immunization, the transgenic mice were sacrificed and the responses of their splenocytes to peptides, recombinant hTRT protein and hTRT-positive tumor cell were examined by using IFN-γ ELISPOT assays. The splenocytes of hTRT766-immunized mice responded strongly to the hTRT766 stimulation, producing IFN-γ at a frequency of 72 spots per million of splenocytes (medium control, 10/106). […]

## XLTDLQPYMRQFVAHL ({code X}-LTDLQPYMRQFVAHL; not fully specified; reading uncertain) [hTRT766]
100 μg peptide in CFA s.c. twice, IFN-γ ELISPOT
  response of splenocytes of immunized mice to irrelevant peptide hTRT854: did not respond
100 μg peptide in CFA s.c. twice, restimulated with hTRT766 peptide 20 μg/ml
  IFN-γ ELISPOT frequency of splenocytes of immunized mice: 72 spots per million of splenocytes
Restimulated with recombinant hTRT protein 20 μg/ml
  IFN-γ ELISPOT frequency of splenocytes of immunized mice: 41 spots per million cells
Stimulated with hTRT-negative GM847 tumor lysates, background frequency
  IFN-γ ELISPOT frequency of splenocytes of immunized mice: 10/106
Stimulated with hTRT-positive NA-6-Mel cell lysates
  IFN-γ ELISPOT frequency of splenocytes of immunized mice: 38 spots per million cells
Stimulated with irrelevant CEA-Fc proteins, background frequency
  IFN-γ ELISPOT frequency of splenocytes of immunized mice: 10/106

Source: US20030143228A1, “Human telomerase reverse transcriptase as a class-II restricted tumor-associated antigen” (Baylor College of Medicine, priority 2001, published 2003)
